Source: patent US11279695B2, “Andrographolide compound and method for treatment or prevention of fibrotic disease using the same” (Zhengzhou University, priority 2018, dated 2022)

Legend:
[1] = system: human renal proximal tubule epithelial cells HK-2; assay: In vitro cytotoxicity MTT assay on HK-2 cells; type: cell-based; conditions: 48 h, 30.00 μM equivalent dose, FIGS. 6A-6B
Method: HK-2 cells were cultured in a DMEM/F12 medium containing 10% (V/V) fetal bovine serum (FBS), 100 μg/mL streptomycin, and 100 IU/mL penicillin, followed by incubation at 37° C. in a humidified atmosphere with 5% CO2.
HK-2 cells in the logarithmic growth phase were digested with 0.25% (W/V) trypsin and 0.02% EDTA (W/V), diluted into 7.0×10^4 cell/mL cell suspension with DMEM/F12 medium containing 10% (V/V) FBS, and transferred into a 96-well plate for 200 μL per well. After incubation in the 37° C. incubator with 5% CO2 for 24 hours, the medium comprising different concentration of test compounds were added into the wells. Under these conditions, the maximum final drug concentration in the assay was 30.00 μM. The experiment was performed in triplicate. After further incubation for 48 hours, other steps were the same as Example 1.

[2] = system: hepatic fibrosis in KM mice induced by bile duct ligation (BDL); assay: Hepatic fibrosis in KM mice induced by bile duct ligation (BDL); type: in vivo; conditions: 10 days, scale 0-6
Method: SPF grade KM mice, healthy, male, with a body weight of 20±2 g, were purchased from Henan Experimental Animal Center. (License No. SOCK (Yu) 2017-0001).
After KM mice were fed ad libitum for 3 days, they were randomly divided into multiple groups including a sham-operated control group, a model group, an AD control group, and different compound-administered groups, six mice per group. The sham operation group and the model group were administered with 0.5% Sodium CMC (Na CMC) via gavage, and the other administration groups were administered 0.5% CMC-Na suspension of the corresponding drug, and the administration lasted for 10 days. Mice should be strictly fasting with nothing but water 12 hours prior to surgery. The mice were anesthesia by intraperitoneally injecting with 0.5% sodium pentobarbital. After limb immobilization in a supine position, the anesthetized mice were prepared. The abdomen of the mice was shaved and then swabbed with iodine to sterilize the skin regions. After spreading of surgery cloth, the abdomen was opened along the abdominal wall in the midline. The duodenum was found along the stomach, then pull upwards to just separate from the common bile duct. Double-ligated with 4/0 silk thread and disconnected the common bile duct with a distance of 0.5 cm away from the hepatic hilum. Following the examination for no bleeding and bile leakage, the 3/0 silk thread continuous suture method was used to close the abdomen layer by layer. The wound was swabbed with iodine, and the mice rest in a 37° C. warm environment until the animals were fully awake. […] Drugs were administrated by gavage on an empty stomach in the morning every day, and were given daily for 10 days. The liver was quickly excised after blood collection. The collected blood was allowed to stand in an incubator 37° C. for 45 min, and then the upper serum was collected by centrifugation at 3500 rpm for 15 min at 4° C. The liver of the lower left lobe of the mice was fixed in 10 times volume of 4% paraformaldehyde fixative, and the fixative was changed after 24 h. Pathological sections were obtained after fixation. Each section was stained with hematoxylin-eosin stain (HE) and Sirius red to observe fibrosis levels and pathological change in the liver. […] Collagen deposition was measured with Sirius red staining, and positive expression was semi-quantitatively analyzed by Image-Pro Plus. […]

[3] = system: silica-induced pulmonary fibrosis in KM mice; assay: Silica-induced pulmonary fibrosis in KM mice; type: in vivo; conditions: AD at equivalent dose (40 or 120 mg/kg) ig 21 days
Method: SPF grade KM mice, healthy, male, with a body weight of 20±2 g, were purchased from Henan Experimental Animal Center. (License No. SOCK (Yu) 2017-0001). Silica was heated at 250° C. for 1 hour to remove endotoxin. After autoclaving the heated silica was suspended in physiological saline to yield a final concentration of 75 mg/mL suspension, and stored at 4° C. for use. The suspension was shaken and sonicated for 30 minutes prior to injection.
After mice were fed ad libitum for 3 days, they were randomly divided into six groups including a sham-operated control group, a model group, different groups of the compounds of the disclosure, eight mice per group. The mice were anesthetized with intraperitoneal injection of 0.5% sodium pentobarbital (50 mg/kg). After the immobilization in a supine position, the anesthetized mice were prepared. The neck of the mice was shaved and then swabbed with iodine to sterilize the skin regions. An incision with a length of about 1 cm was made along the neck for separating bronchus. A silica suspension proportional (150 mg/kg) to the body weight, and 100 μL of air was immediately injected into the trachea through the cartilage space of mice. After the muscle was reset, the mice were quickly rotated for 2 minutes to evenly distribute the silica. […] Mice lung was collected, weighed and the pulmonary lesion was measured. […]

[4] = 15 mg/kg ig, model group mean score 4.25

Row | SMILES | inhibitory effect on proliferation of HK-2 cells compared with AD [1] | further results
1 | C=C1CC[C@@H]2[C@](C)(CO)[C@H](O)CC[C@@]2(C)[C@@H]1C/C=C1/C(=O)OC[C@H]1O [AD, andrographolide] | lower inhibitory activity against the cell proliferation | fibrosis pathological score for liver tissue section (mean) ([2]; 15 mg/kg ig, model group mean score 4.8): 2.83; fibrosis pathological score for liver tissue section (mean) ([2]; 40 mg/kg ig, model group mean score 4.8): 2.10; pulmonary fibrosis score [3]: 3.8-4.9
2 | CC1=CCC2C(C)(CO)C(O)CCC2(C)C1C=CC1=CC(=Cc2ccc(F)cc2)OC1=O (centres unmarked) [ADC-5] | higher inhibitory effect on proliferation of HK-2 cells than the parent compound AD | 
3 | CC1=CCC2C(C)(CO)C(O)CCC2(C)C1C=CC1=CC(=Cc2ccc(F)c(F)c2)OC1=O (centres unmarked) [ADC-6] | higher inhibitory effect on proliferation of HK-2 cells than the parent compound AD | 
4 | COc1ccc(C=C2C=C(C=CC3C(C)=CCC4C(C)(CO)C(O)CCC34C)C(=O)O2)cc1 (centres unmarked) [ADC-11] | higher inhibitory effect on proliferation of HK-2 cells than the parent compound AD | 
5 | CC1=CCC2C(C)(CO)C(O)CCC2(C)C1C=CC1=CC(=Cc2ccccc2O)OC1=O (centres unmarked) [ADC-12] | higher inhibitory effect on proliferation of HK-2 cells than the parent compound AD | 
6 | CC12CCC3C(CCC(O)C3(C)CO)C1CC(C1=CC(=Cc3ccc(Br)cc3)OC1=O)O2 (centres unmarked) [ADY-2] | higher inhibitory effect on proliferation of HK-2 cells than the parent compound AD | 
7 | CC12CCC3C(CCC(O)C3(C)CO)C1CC(C1=CC(=Cc3ccccc3)OC1=O)O2 (centres unmarked) [ADY-5] | higher inhibitory effect on proliferation of HK-2 cells than the parent compound AD | 
8 | CC12CCC3C(CCC(O)C3(C)CO)C1CC(C1=CC(=Cc3ccc(F)c(F)c3)OC1=O)O2 (centres unmarked) [ADY-6] | higher inhibitory effect on proliferation of HK-2 cells than the parent compound AD | 
9 | COc1cccc(C=C2C=C(C3CC4C5CCC(O)C(C)(CO)C5CCC4(C)O3)C(=O)O2)c1 (centres unmarked) [ADY-7] |  | fibrosis pathological score for liver tissue section (mean) [2, 4]: 0.4
10 | CC12CCC3C(CCC(O)C3(C)CO)C1CC(C1=CC(=Cc3ccc(O)cc3)OC1=O)O2 (centres unmarked) [ADY-8] | higher inhibitory effect on proliferation of HK-2 cells than the parent compound AD | 
11 | COc1ccc(C=C2C=C(C3CC4C5CCC(O)C(C)(CO)C5CCC4(C)O3)C(=O)O2)cc1 (centres unmarked) [ADY-12] |  | fibrosis pathological score for liver tissue section (mean) [2, 4]: 1.4
